In PMC12040169 (PLOS Biology, 2025):

Assay: in vitro
Conditions: human, hela cells, % viability

| Compound | viability at 28.5 h, 10 µM |
| --- | --- |
| O=C(CCn1cnc2ccccc21)N1CCC(c2ccncc2)CC1 [CBK283522] | 102% |
| CCC(C(=O)N1CCC(C(=O)c2cccnc2)CC1)c1ccccc1 (stereo not shown) [CBK283525] | 91.1% |
| O=C(c1cccnc1)C1CCN(C(=O)c2cccs2)CC1 [CBK283528] | 102% |
| Cc1cc(C)n(CCC(=O)N2CCC(c3ccncc3)CC2)n1 [CBK283529] | 94.1% |
| Cc1ncsc1C(=O)N1CCCCC1c1nc2ccccc2[nH]1 (stereo not shown) [CBK283531] | 95.9% |
| CC(c1ccccc1)c1nc2cnccn2c1NC(C)(C)C (stereo not shown) [CBK283533] | 92.3% |
| COCCn1c(=O)n(CC=C(C)C)c2cccnc21 [CBK283534] | 92.1% |
| Cn1ccnc1C1(O)CCN(C(=O)c2ccccc2F)CC1 [CBK283536] | 105% |
| O=C(Cc1cccnc1)N1CCC(O)(c2cccc(F)c2)CC1 [CBK283537] | 95.9% |
| Cc1ccc2cc3c(nc2c1)OCC(=O)N(Cc1ccco1)C3 [CBK283539] | 92.9% |
| c1coc(CNc2c(-c3cccs3)nc3cnccn23)c1 [CBK283540] | 93.2% |
| Cn1ccnc1C1(O)CCN(C(=O)CCc2ccccc2)CC1 [CBK283542] | 92% |
| Cn1ccnc1C1(O)CCN(C(=O)c2cc(F)cc(F)c2)CC1 [CBK283544] | 102% |
| O=C(C1CCC1)N1C2CCC1CC(O)(c1ccc(F)cc1)C2 (stereo not shown) [CBK283547] | 92.5% |
| O=C(CN1CCC(c2ccccc2F)CC1)NCc1ccco1 [CBK283550] | 88.3% |
| O=C(CN1CCC(c2ccccc2F)CC1)NC1CCCC1 [CBK283551] | 97.4% |
| Cn1ccnc1C1(O)CCN(C(=O)c2ccc(F)cc2F)CC1 [CBK283552] | 103% |
| O=C(c1cccc(Cl)c1)N1CCC(O)(c2cccnc2)CC1 [CBK283553] | 93.2% |
| O=C(Cn1ncc2cccn2c1=O)OCC(F)(F)F [CBK283554] | 93.7% |
| Cc1nn(CC(=O)N2C(C)CCCC2C)c(=O)c2cc3occc3n12 (stereo not shown) [CBK283555] | 80.8% |
| Cc1ccc(C2=CCN(CC(=O)N3CCCCC3C)CC2)o1 (stereo not shown) [CBK283556] | 86.8% |
| COc1ccc(C2CCN(CC(=O)NC(C)(C)C)CC2)cc1 [CBK283558] | 92.7% |
| CCN(CC)C(=O)CN1CCC(c2ccc(OC)cc2)CC1 [CBK283559] | 102% |
| C=CCNC(=O)CN1CCC(c2ccc(OC)cc2)CC1 [CBK283560] | 106% |

| Compound | viability at 28.5 h, 10 µM |
| --- | --- |
| COc1ccc(C2CCN(CC(=O)N3CCCC3)CC2)cc1 [CBK283561] | 101% |
| COc1ccc(C2CCN(Cc3cccnc3)CC2)cc1 [CBK283564] | 96.1% |
| Cc1ccc(C2=CCN(S(=O)(=O)c3ccc(F)cc3)CC2)o1 [CBK283571] | 93% |
| COc1ccc(CC(=O)N2CC=C(c3ccc(C)o3)CC2)cc1 [CBK283572] | 92.4% |
| O=C(Cc1ccc(F)cc1)N1CCC(n2cnc3cccnc32)CC1 [CBK283574] | 91.1% |
| CCc1nn(CC(=O)N(C)C)c(=O)c2cc3oc(C)cc3n12 [CBK283576] | 114% |
| O=C(CN1CCC(c2ccccc2F)CC1)Nc1nccs1 [CBK283579] | 106% |
| CC(c1cccc(F)c1)n1cc(C(=O)NCCc2ccco2)nn1 (stereo not shown) [CBK283582] | 102% |
| CCc1nn(CC(=O)N2CCCC2)c(=O)c2cc3oc(C)cc3n12 [CBK283584] | 110% |
| Cn1ccnc1C1(O)CCN(C(=O)Cc2ccccc2F)CC1 [CBK283585] | 97.6% |
| O=C(Cc1cccc(F)c1)N1CCC(O)(c2ccccn2)CC1 [CBK283586] | 100% |
| O=C(Cc1cccs1)N1CCC(O)(c2ccccn2)CC1 [CBK283587] | 96.4% |
| O=C(Cc1ccc(F)cc1)N1CCC(O)(c2ccccn2)CC1 [CBK283588] | 97% |
| Cc1cc2c(cc3c(=O)n(CC(=O)N4CCC(C)CC4)nc(C)n32)o1 [CBK283590] | 90.1% |
| Cc1nc2cccnc2n1CCNC(=O)Cc1cccs1 [CBK283592] | 107% |
| Cc1nc2cccnc2n1CCNC(=O)c1cccc(Cl)c1 [CBK283593] | 97.9% |
| Cc1ccc2nc3c(cc2c1)CN(Cc1ccco1)C(=O)CO3 [CBK283594] | 103% |
| O=C(NC1(c2ccc(F)cc2)CCCC1)c1cnccn1 [CBK283595] | 85.1% |
| CCOc1ccc(CC(=O)N2CCC(c3ccncc3)CC2)cc1 [CBK283596] | 87.8% |
| O=C1CC2(CCN(C(=O)N3CCCC3)CC2)Oc2ccc(F)cc21 [CBK283597] | 84.9% |
| COc1ccccc1[C@@H]1C[C@H](OC(=O)c2ccc(F)cc2)C(=O)N1C [CBK283598] | 92% |
| Cc1ccc2c(c1)C(=O)CC1(CCN(C(=O)OC(C)(C)C)CC1)O2 [CBK283599] | 98% |
| COc1cccc(C2(NC(=O)CCn3nccc3C)CCCC2)c1 [CBK283601] | 101% |
| CN1CC=C(/C=C/c2c[nH]c3ccccc23)CC1 [CBK283602] | 89.4% |

| Compound | viability at 28.5 h, 10 µM |
| --- | --- |
| O=C(CCC1CCCC1)N1CCC(O)(c2cccnc2)CC1 [CBK283603] | 101% |
| Cc1csc(NC(=O)CN2CC=C(c3ccc(C)o3)CC2)n1 [CBK283606] | 96.5% |
| Cc1cc(NC(=O)CN2CC=C(c3ccc(C)o3)CC2)no1 [CBK283608] | 106% |
| CC(=O)NC1(c2ccc(F)cc2)CCN(Cc2cccnc2)CC1 [CBK283610] | 103% |
| O=C(NC1(c2ccc(F)cc2)CCCC1)c1cnn2cccnc12 [CBK283612] | 97.4% |
| Cc1nonc1CC(=O)NC1(c2ccc(F)cc2)CCCC1 [CBK283613] | 93.2% |
| Cc1nn(C)cc1C(=O)O[C@H]1C[C@@H](c2ccc(F)cc2)N(C)C1=O [CBK283615] | 103% |
| Cc1cccnc1C1(O)CCN(C(=O)Cc2ccccc2F)CC1 [CBK283617] | 97.8% |
| O=C(NC1(c2cccc(F)c2)CCCC1)c1cnccn1 [CBK283619] | 93% |
| Cc1nn(CC(=O)N2CCCC2)c(=O)c2cc3occc3n12 [CBK283621] | 84.5% |
| Cc1nn(CC(=O)N2CCCCC2C)c(=O)c2cc3occc3n12 (stereo not shown) [CBK283622] | 76.7% |
| Cc1nn(CC(=O)N2CCCC(C)C2)c(=O)c2cc3occc3n12 (stereo not shown) [CBK283623] | 91.6% |
| Cc1nn(CC(=O)N2CCCCCC2)c(=O)c2cc3occc3n12 [CBK283624] | 96.5% |
| O=C1CC2(CCN(C(=O)C3CCCC3)CC2)Oc2ccc(Cl)cc21 [CBK283625] | 90.9% |
| COc1ccccc1C1(NC(=O)CCn2cccn2)CCCC1 [CBK283626] | 103% |
| COc1ccccc1C1(NC(=O)CCn2nccc2C)CCCC1 [CBK283628] | 89.7% |
| Cc1ccc(C2=CCN(CC(=O)NCc3ccco3)CC2)o1 [CBK283632] | 107% |
| Cc1ccc(C2=CCN(CC(=O)Nc3ccccn3)CC2)o1 [CBK283634] | 98.7% |
| Cc1nc2cccnc2n1C1CCN(C(=O)NC2CCCCC2)CC1 [CBK283637] | 88.5% |
| CCc1nc2cccnc2n1CCNC(=O)Cc1cccs1 [CBK283639] | 98.9% |
| O=C(CN1CCC(c2ccc(F)cc2)CC1)N1CCCCC1 [CBK283640] | 101% |
| Cc1cc(O)n2nc(C)c(-c3ccc(F)cc3)c2n1 [CBK283642] | 89.3% |
| COc1ccccc1C1(NC(=O)c2c(C)noc2C)CCCC1 [CBK283644] | 95% |
| Cc1ccc(C)n1-c1cccc(C(=O)N2CCn3cnnc3C2)c1 [CBK283646] | 96.2% |

| Compound | viability at 28.5 h, 10 µM |
| --- | --- |
| Cn1ccnc1C1(O)CCN(C(=O)CC2CCCCC2)CC1 [CBK283647] | 97.2% |
| COc1cccc(C2(NC(=O)Cn3nc(C)cc3C)CCCC2)c1 [CBK283648] | 98.1% |
| CN1C(=O)[C@@H](OC(=O)c2cccnc2)C[C@H]1c1ccc(F)cc1 [CBK283649] | 104% |
| O=C(c1cc[nH]n1)N1CCC2(CC1)Nc1ccccc1-n1cccc12 [CBK283652] | 96.1% |
| Cc1nn(CC(=O)N2CCC(C)CC2)c(=O)c2cc3occc3n12 [CBK283654] | 89.8% |
| Cc1nn(CC(=O)N(C(C)C)C(C)C)c(=O)c2cc3occc3n12 [CBK283655] | 98.4% |
| CCc1nn(CC(=O)N2CCCC(C)C2)c(=O)c2cc3occc3n12 (stereo not shown) [CBK283657] | 79.3% |
| COc1cccc(CC(=O)N2CCCC2c2nc3ccccc3[nH]2)c1 (stereo not shown) [CBK283665] | 99.8% |
| COc1ccc(CC(=O)N2CCCC2c2nc3ccccc3[nH]2)cc1 (stereo not shown) [CBK283666] | 93.4% |
| COc1ccc(CCC2CCN(C)CC2)c(O)c1 [CBK283668] | 104% |
| O=C(c1ccc(F)cc1)N1CCC(O)(c2ccccn2)CC1 [CBK283669] | 92.9% |
| CC1CCCCC1NC(=O)Cn1ncc2cccn2c1=O (stereo not shown) [CBK283673] | 98.7% |
| CCc1nn(CC(=O)N2CCCCC2)c(=O)c2cc3occc3n12 [CBK283674] | 77% |
| CCc1nn(CC(=O)N2CCCCCC2)c(=O)c2cc3occc3n12 [CBK283677] | 86.9% |
| Cc1cccnc1C1(O)CCN(C(=O)Cc2ccccc2Cl)CC1 [CBK283682] | 98.7% |
| O=C(c1ccc2ncccc2c1)N1CCC(c2ccncc2)CC1 [CBK283684] | 90.3% |
| c1csc(CNc2c(-c3cccs3)nc3cnccn23)c1 [CBK283685] | 92.7% |
| O=C(Cc1ccc(F)cc1)N1CCn2c(nnc2C2CC2)C1 [CBK283688] | 113% |
| O=C(CCCc1c[nH]c2ccccc12)N1CCn2c(nnc2C2CC2)C1 [CBK283689] | 96.6% |
| Cc1ccnn1CCC(=O)NC1(c2ccccc2F)CCCC1 [CBK283691] | 81.7% |
| CC1CCN(C(=O)Cn2c(=O)n(C(C)C)c3ncccc32)CC1 [CBK283698] | 89.5% |
| CC(C)n1c(=O)n(CC(=O)NCCc2ccccc2)c2cccnc21 [CBK283701] | 94.8% |
